From patent publication EP0531640B1, “Antibiotic LL-E19020 Gamma” (F. HOFFMANN-LA ROCHE AG, priority 1991, dated 1993)
Converted amounts (≈) assume the structure as drawn.

Columns and labels:
[1] = test system: Streptococcus pneumoniae TEX 85-2; experiment: MIC by agar dilution; type: cell-based; details: TEX852, Mueller-Hinton agar, 5% sheep blood, 18 hours, read-out: MINIMAL INHIBITORY CONCENTRATION
Procedure: (§1) The in vitro antibacterial activity of LL-E19020 Gamma is determined against a spectrum of gram positive and gram negative bacteria by a standard agar dilution method. Mueller-Hinton agar containing 5% sheep blood and two-fold decreasing concentrations of LL-E19020 Gamma is poured into petri dishes. The agar surfaces are inoculated with 1 to 5X10^4 colony forming units of bacteria by means of the Steers replicating device. The lowest concentration of antibiotic that inhibits growth of a bacterial strain after 18 hours incubation is recorded as the minimal inhibitory concentration for that strain.
(§2) • 1. Serial two-flow dilutions of drug are prepared in Mueller-Hinton broth in a range of 2560 µg/ml-0.15 µg/ml plus a solvent control. • 2. Two milliliters of drug dilution (10X) are added to sterile screw cap bottles to which 18 ml of Mueller-Hinton agar containing 5.6% defibrinated sheep blood is added. Final drug concentration ranges 256 µg/ml-0.015 µg/ml in agar containing 5% sheep blood. • 3. A few isolated colonies of each test organism are inoculated into 5 ml trypticase soy broth or brain heart infusion broth. The cultures are shaken at 35 °C. for 5 hours. • 4. Each culture is diluted 1:50 (10^-1.7) in Mueller-Hinton broth and applied to agar plates using a Steers replicator. Control plates should be seeded last to ensure that viable organisms are present throughout the procedure. Inoculated agar plates are allowed to stand undisturbed until the inoculum spots are completely absorbed. • 5. The plates are inverted and incubated at 35 °C. for 18 hours with CO2. • 6. The minimum inhibitory concentration (MIC) is taken as the lowest concentration of antimicrobial agent at which complete inhibition of antimicrobial agent at which complete inhibition occurs. A very fine, barely visible haze or a single colony is disregarded.

[2] = test system: Pseudomonas aeruginosa 12-4-4 (MP); experiment: MIC by agar dilution; type: cell-based; details: Mueller-Hinton agar, 5% sheep blood, 18 hours, read-out: MINIMAL INHIBITORY CONCENTRATION
Procedure: as §1, §2

[3] = test system: Enterococcus spp. ARUM 87-41; experiment: MIC by agar dilution; type: cell-based; details: Mueller-Hinton agar, 5% sheep blood, 18 hours, read-out: MINIMAL INHIBITORY CONCENTRATION
Procedure: as §1, §2

[4] = test system: Staphylococcus haemolyticus AVAH 88-3; experiment: MIC by agar dilution; type: cell-based; details: AVAH883, Mueller-Hinton agar, 5% sheep blood, 18 hours, read-out: MINIMAL INHIBITORY CONCENTRATION
Procedure: as §1, §2

[5] = test system: Escherichia coli ATCC 35218; experiment: MIC by agar dilution; type: cell-based; details: ATCC35218, 18 h, read-out: MINIMAL INHIBITORY CONCENTRATION
Procedure: as §1, §2

[6] = test system: Staphylococcus aureus VGH 84-47; experiment: MIC by agar dilution; type: cell-based; details: VGH8447, 18 h, read-out: MINIMAL INHIBITORY CONCENTRATION
Procedure: as §1, §2

[7] = test system: Staphylococcus aureus ROSE (MP); experiment: MIC by agar dilution; type: cell-based; details: Mueller-Hinton agar, 5% sheep blood, 18 hours, read-out: MINIMAL INHIBITORY CONCENTRATION
Procedure: as §1, §2

[8] = test system: Klebsiella pneumoniae NEMC 87-271; experiment: MIC by agar dilution; type: cell-based; details: NEMC87271, Mueller-Hinton agar, 5% sheep blood, 18 hours, read-out: MINIMAL INHIBITORY CONCENTRATION
Procedure: as §1, §2

[9] = test system: Staphylococcus aureus IVES 396; experiment: MIC by agar dilution; type: cell-based; details: IVES396, Mueller-Hinton agar, 5% sheep blood, 18 hours, read-out: MINIMAL INHIBITORY CONCENTRATION
Procedure: as §1, §2

[10] = test system: Staphylococcus aureus SMITH (MP); experiment: MIC by agar dilution; type: cell-based; details: Mueller-Hinton agar, 5% sheep blood, 18 hours, read-out: MINIMAL INHIBITORY CONCENTRATION
Procedure: as §1, §2

[11] = test system: non-enterococcal streptococci; experiment: MIC by agar dilution, summary for non-enterococcal streptococci; type: cell-based; details: 18 h; text summary: relatively good activity against non-enterococcal streptococci
Procedure: as §1
as §2, with “Inoculated agar plates are allowed to stand undisturbed until the inoculum spots are completely absorbed. • 5. The plates are inverted and incubated at 35 °C. for 18 hours with CO2. • 6. The minimum inhibitory concentration (MIC) is taken as the lowest concentration of antimicrobial agent at which complete inhibition of antimicrobial agent at which complete inhibition occurs. A very fine, barely visible haze or a single colony is disregarded.” left out

[12] = test system: staphylococci and enterococci; experiment: MIC by agar dilution, summary for staphylococci and enterococci; type: cell-based; details: 18 h; text summary: poor to moderate activity vs staphylococci and enterococci
Procedure: as §1
as §2, with “Inoculated agar plates are allowed to stand undisturbed until the inoculum spots are completely absorbed. • 5. The plates are inverted and incubated at 35 °C. for 18 hours with CO2. • 6. The minimum inhibitory concentration (MIC) is taken as the lowest concentration of antimicrobial agent at which complete inhibition of antimicrobial agent at which complete inhibition occurs. A very fine, barely visible haze or a single colony is disregarded.” left out

[13] = Growth of chickens and efficiency of feed utilization; type: in vivo, Peterson X Arbor Acres chicks; details: 25 ppm in the diet
Procedure: In this test, one day old Peterson X Arbor Acres chicks are sorted into equal weight groups of 5 males and 5 females per cage. Cages are randomized to treatment groups with six replicates per treatment. The test compound is evaluated 25 ppm in the diet against chicks receiving a non-medicated diet and a diet containing 200 ppm of penicillin as a positive control.
The cages are weighed at day 1 and at day 14 and feed consumption is measured on weigh days. Feed and water are offered ad libitum and lighting and supplemental heat are provided continuously.
The poultry diet employed in the test is as follows:
The vitamin-amino acid premix in the above feed composition is prepared from the following formulation. The expressions of quantity relate to units per kilogram of the finished feed composition.

[14] = In vivo toxicity in uninfected mice; details: for In Vivo Toxicity: Survival Ratio 7 Days After Administration Of Single Subcutaneous Dose: uninfected mice
Procedure: (§3) The in vivo antibacterial activity of antibiotic LL-E19020 Gamma is established by infecting female CD-1 mice from Charles River Laboratories, weighing 20±2 g each, intraperitoneally with either 2.0 X 10^2 CFU/0.5 ml Streptococcus pyogenes C203 suspended in broth or 2.8 X 10^6 CFU/0.5 ml Straphylococcus aureus Smith suspended in 5% hog gastric mucin. The mice were treated subcutaneously, 30 minutes after infection with the indicated dose of the test compound in 0.5 ml of 0.2% aqueous agar. Toxicity studies were performed administering the same treatment to uninfected mice.

[15] = test system: Streptococcus pyogenes C203; experiment: In vivo antibacterial activity, acute lethal infection in mice; details: for Survival Ratio 7 Days After Infection With S. pyogenes C203: mice, 30 minutes after infection
Procedure: as §3

[16] = test system: Staphylococcus aureus Smith; experiment: as above; details: for Survival Ratio 7 Days After Infection With S. aureus Smith: mice, 30 minutes after infection
Procedure: as §3

[17] = Single Subcutaneous Dose 0.5 MG/KG
[18] = Single Subcutaneous Dose 1 MG/KG
[19] = Single Subcutaneous Dose 2 MG/KG
[20] = Single Subcutaneous Dose 4 MG/KG
[21] = Single Subcutaneous Dose 8 MG/KG
[22] = Single Subcutaneous Dose 16 MG/KG

Compound: C/C=C\C=C\C1OC(O)(C(COC2CC(OC)C(OC3CC(OC)C(OC4CC(OC)C(O)C(C)O4)C(C)O3)C(C)O2)C(=O)NC/C=C/C=C(\C)C(OC)C(C)C2CC(O)C(/C=C/C=C/C=C/C(=O)O)O2)C(OC(=O)Cc2ccc(O)cc2)C(O)C1(C)C (stereo not shown) [LL-E19020 Gamma]
- MIC [1]: 0.5 µg/mL (≈ 0.402 µM)
- MIC [2]: > 128 µg/mL
- MIC [3]: 8 µg/mL (≈ 6.44 µM)
- MIC [4]: 16 µg/mL (≈ 12.9 µM)
- MIC [5]: > 128 µg/mL
- MIC [6]: 64 µg/mL (≈ 51.5 µM)
- MIC [7]: 32 µg/mL (≈ 25.8 µM)
- MIC [8]: > 128 µg/mL
- MIC [9]: 64 µg/mL (≈ 51.5 µM)
- MIC [10]: 128 µg/mL (≈ 103 µM)
- MIC [11]: 0.12 to 16 µg/mL (≈ 0.0966 to 12.9 µM)
- MIC [12]: 8 to 128 µg/mL (≈ 6.44 to 103 µM)
- Weight Gain ([13]; chicks, day 1 to day 14): 342 g
- Weight Gain, % improvement over control ([13]; chicks, day 1 to day 14): 6.5%
- feed conversion ([13]; chicks, day 1 to day 14): 1.297
- feed conversion, % improvement over control ([13]; chicks, day 1 to day 14): 1.9%
- efficiency of feed utilization, result in words ([13]; over unmedicated controls): increased the efficiency of feed utilization
- weight gain of chicks, result in words ([13]; over unmedicated controls): improved weight gain of chicks
- toxic symptoms ([14]; dosed subcutaneously at the same levels used in the protection study (0.5-64 mg/kg)): did not exhibit toxic symptoms
- In Vivo Toxicity: Survival Ratio 7 Days After Administration Of Single Subcutaneous Dose ([14]; 0.5 MG/KG): 2/2
- In Vivo Toxicity: Survival Ratio 7 Days After Administration Of Single Subcutaneous Dose ([14]; 1 MG/KG): 2/2
- In Vivo Toxicity: Survival Ratio 7 Days After Administration Of Single Subcutaneous Dose ([14]; 2 MG/KG): 2/2
- In Vivo Toxicity: Survival Ratio 7 Days After Administration Of Single Subcutaneous Dose ([14]; 4 MG/KG): 2/2
- In Vivo Toxicity: Survival Ratio 7 Days After Administration Of Single Subcutaneous Dose ([14]; 8 MG/KG): 2/2
- In Vivo Toxicity: Survival Ratio 7 Days After Administration Of Single Subcutaneous Dose ([14]; 16 MG/KG): 2/2
- In Vivo Toxicity: Survival Ratio 7 Days After Administration Of Single Subcutaneous Dose ([14]; 32 MG/KG): 2/2
- In Vivo Toxicity: Survival Ratio 7 Days After Administration Of Single Subcutaneous Dose ([14]; 64 MG/KG): 2/2
- Survival Ratio 7 Days After Infection With S. pyogenes C203 [15, 17]: 0/5
- Survival Ratio 7 Days After Infection With S. pyogenes C203 [15, 18]: 0/5
- Survival Ratio 7 Days After Infection With S. pyogenes C203 [15, 19]: 0/5
- Survival Ratio 7 Days After Infection With S. pyogenes C203 [15, 20]: 1/5
- Survival Ratio 7 Days After Infection With S. pyogenes C203 [15, 21]: 3/5
- Survival Ratio 7 Days After Infection With S. pyogenes C203 [15, 22]: 4/5
- ED50 ([15]; sc, acute lethal infection in mice, Streptococcus pyogenes C203, single subcutaneous dose, read-out: approximate ED50): 4 to 8 mg/kg
- Survival Ratio 7 Days After Infection With S. aureus Smith [16, 17]: 0/5
- Survival Ratio 7 Days After Infection With S. aureus Smith [16, 18]: 0/5
- Survival Ratio 7 Days After Infection With S. aureus Smith [16, 19]: 0/5
- Survival Ratio 7 Days After Infection With S. aureus Smith [16, 20]: 0/5
- Survival Ratio 7 Days After Infection With S. aureus Smith [16, 21]: 0/5
- Survival Ratio 7 Days After Infection With S. aureus Smith [16, 22]: 0/5
- Survival Ratio 7 Days After Infection With S. aureus Smith ([16]; Single Subcutaneous Dose 32 MG/KG): 0/5
- Survival Ratio 7 Days After Infection With S. aureus Smith ([16]; Single Subcutaneous Dose 64 MG/KG): 0/5
- ED50 ([16]; sc, acute lethal infection in mice, Staphylococcus aureus Smith, single subcutaneous dose, read-out: approximate ED50): > 64 mg/kg
